Experimental findings from ChEMBL document CHEMBL1201862, “PubChem BioAssay data set” (2004) are described below.

Common to all, as to assay: NCI-60 cell line screen, 48 h
In assay [1] the test system is HOP-62.
The subject of assay [2] is A498.
Assay [3] has as its system RXF 393.
Assay [4] concerns TK-10.
The subject of assay [5] is OVCAR-3.
Assay [6] concerns MDA-MB-435.
For assay [7], the system named is CCRF-CEM.
The test system of assay [8] is T47D.
Assay [9] relates to MDA-MB-231.
Assay [10] concerns NCI/ADR-RES.
The test system of assay [11] is ACHN.
Assay [12] has as its system KM12.
For assay [13], the system named is 786-0.
The subject of assay [14] is PC-3.
Assay [15] concerns OVCAR-4.
Assay [16] deals with EKVX.
Assay [17] concerns SNB-19.
The subject of assay [18] is SK-MEL-2.
For assay [19], the system named is SNB-75.
The subject of assay [20] is RPMI-8226.

Each structure is given as a SMILES string.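 Cultured in 96-well plates, cells were exposed to test compound for 48 hours across five concentrations. GI50 = concentration required for 50% inhibition of growth.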 The source made the active and inactive calls. Cut-off read from the data, not from the text of the source: active = GI50 up to about 1.1 µM and inactive = higher. Bounds are passed on as bounds.

Consider `COC(=O)c1ccccc1C1CN=NC12Cc1c(C)c3c(c(C)c1C2=O)CCC3` (configuration not stated), for which the GI50 in assay [1] is 77.4 µM (inactive); in assay [2] it was > 100 µM (inactive); in [3] it was > 100 µM (inactive); in [4], 2.48 µM (inactive); in assay [5], > 100 µM (inactive); in [6] it was > 100 µM (inactive). Further, the GI50 in assay [7] was > 100 µM (inactive); in assay [8] it was > 100 µM (inactive); in [9] it was 23.6 µM (inactive); in [10], > 100 µM (inactive); in [11] it was > 100 µM (inactive); in [12], > 100 µM (inactive). Further, the GI50 in assay [13] is 76.9 µM (inactive); in assay [14], > 100 µM (inactive); in assay [15] it was > 100 µM (inactive); in [16], > 100 µM (inactive); in assay [17], > 100 µM (inactive); in assay [18], > 100 µM (inactive). Besides, the GI50 in [19] is 40.6 µM (inactive).

In the case of `Cn1c2c(c3c(=O)[nH]ncc31)CCCc1ccccc1-2`, the GI50 in assay [1] was 18.9 µM (inactive); in [2], 22.4 µM (inactive); in assay [4] it was 28.7 µM (inactive); in assay [5], 26.8 µM (inactive); in assay [6], 20.9 µM (inactive); in [7] it was 34.5 µM (inactive). The GI50 in assay [8] was 38.9 µM (inactive); in assay [9], 27.5 µM (inactive); in assay [10], 36.7 µM (inactive); in assay [11], 26.8 µM (inactive); in [12] it was 37.3 µM (inactive); in [13], 27.8 µM (inactive). Moreover, the GI50 is 17.4 µM (inactive) in assay [20]; 26.1 µM (inactive) in assay [14]; 37.4 µM (inactive) in assay [15]; 11.8 µM (inactive) in assay [16]; 42.7 µM (inactive) in assay [17]; 20.8 µM (inactive) in assay [18]. Besides, the GI50 in assay [19] was 23.6 µM (inactive).

Take `COc1cc(C2c3cc4c(cc3[C@@H](Nc3ccc(F)cc3)C3COC(=O)[C@H]23)OCO4)cc(OC)c1O` (some centres not stated): the GI50 in [1] was 0.635 µM (active); in [2], 1.89 µM (inactive); in assay [3], 3.12 µM (inactive); in assay [4] it was 4.88 µM (inactive); in [5], 5.04 µM (inactive); in assay [6], 4.17 µM (inactive). Also, the GI50 in [8] is 0.605 µM (active); in assay [9], 4.33 µM (inactive); in assay [10], 3.97 µM (inactive); in assay [11], 0.476 µM (active); in assay [12], 3.77 µM (inactive); in assay [13], 1.47 µM (inactive). The GI50 in assay [20] was 1.1 µM (active); in assay [14] it was 1.65 µM (inactive); in [15], 15.1 µM (inactive); in assay [16] it was 3.76 µM (inactive); in assay [17], 1.38 µM (inactive); in assay [18], 6.49 µM (inactive). For the same compound, the GI50 in assay [19] is 1.91 µM (inactive).

As to `CN(C)c1ccc(C(c2ccc(Cl)cc2)c2ccc(N(C)C)cc2)cc1`, the GI50 is > 100 µM (inactive) in assay [1]; > 100 µM (inactive) in assay [2]; 28.8 µM (inactive) in assay [3]; > 100 µM (inactive) in assay [4]; > 100 µM (inactive) in assay [5]; > 100 µM (inactive) in assay [6]. The GI50 is 72.9 µM (inactive) in [7]; 64.7 µM (inactive) in [8]; > 100 µM (inactive) in assay [9]; > 100 µM (inactive) in assay [10]; > 100 µM (inactive) in [11]; > 100 µM (inactive) in assay [12]. For the same compound, the GI50 was > 100 µM (inactive) in [13]; 30.1 µM (inactive) in assay [20]; > 100 µM (inactive) in assay [14]; 62.5 µM (inactive) in [16]; > 100 µM (inactive) in assay [17]; > 100 µM (inactive) in assay [18]. Besides, the GI50 in assay [19] was > 100 µM (inactive).

For the compound `COc1ccc(C2C3=C(N=C4SC(C(C)=O)=C(C)N42)c2ccccc2CC3)cc1` (configuration not stated), the GI50 in [1] is > 100 µM (inactive); in assay [2] it was > 100 µM (inactive); in assay [3] it was 23.7 µM (inactive); in [5], > 100 µM (inactive); in assay [6], > 100 µM (inactive); in assay [7], 28.8 µM (inactive). Further, the GI50 was 31.8 µM (inactive) in assay [8]; > 100 µM (inactive) in assay [9]; > 10 µM (inactive) in assay [10]; > 100 µM (inactive) in [11]; 38.6 µM (inactive) in assay [12]; > 100 µM (inactive) in assay [13]. Further, the GI50 in assay [20] was 4.91 µM (inactive); in assay [14], > 100 µM (inactive); in [15], > 100 µM (inactive); in [17], > 100 µM (inactive); in [18] it was > 100 µM (inactive); in assay [19], > 100 µM (inactive).

Regarding `COc1ccc2c(c1)CCc1c-2[nH]c2ccc(OC)cc12`, the GI50 is > 100 µM (inactive) in assay [1]; > 100 µM (inactive) in assay [2]; > 100 µM (inactive) in assay [4]; > 100 µM (inactive) in assay [5]; > 100 µM (inactive) in assay [6]; 14.4 µM (inactive) in assay [7]. The GI50 in assay [8] is 20.8 µM (inactive); in assay [9] it was > 100 µM (inactive); in assay [10], > 100 µM (inactive); in assay [11], > 100 µM (inactive); in assay [12], > 100 µM (inactive); in assay [13], > 100 µM (inactive). Besides, the GI50 in assay [20], in assay [14], in [15], in [16], in assay [17] and in assay [18] was > 100 µM (inactive) in each case. Further, the GI50 in assay [19] is > 100 µM (inactive).

As to `O=C(NN=C(c1ccccc1)c1ccccc1)/C(O)=C/C(=O)c1ccc(Cl)cc1`, the GI50 in assay [1] is 45.2 µM (inactive); in assay [2], 16.5 µM (inactive); in assay [3] it was 35.2 µM (inactive); in [4] it was 48.5 µM (inactive); in assay [5] it was 30.8 µM (inactive); in assay [6] it was 69.3 µM (inactive). Moreover, the GI50 was 24.4 µM (inactive) in assay [7]; 30.2 µM (inactive) in [8]; 11.9 µM (inactive) in [9]; 20.7 µM (inactive) in [10]; 37.4 µM (inactive) in assay [11]; 45 µM (inactive) in assay [12]. Also, the GI50 was 37.3 µM (inactive) in assay [13]; 27.1 µM (inactive) in assay [14]; 45.4 µM (inactive) in assay [15]; 30.7 µM (inactive) in assay [16]; 38.3 µM (inactive) in assay [17]; 29 µM (inactive) in assay [18]. Further, the GI50 in assay [19] was 33 µM (inactive).

For `Cc1ccc2nc(-c3ccc(-c4nc5ccc(C)cc5o4)c(O)c3)oc2c1`, the GI50 in [1], in assay [2], in [4], in assay [6], in assay [7] and in [8] was > 100 µM (inactive) each time. Further, the GI50 in assay [9], in assay [10], in assay [11], in assay [13], in assay [20] and in [14] was > 100 µM (inactive) in each case. Moreover, the GI50 in assay [17], in assay [18] and in [19] was > 100 µM (inactive) in each case.

As for `CC(C)C1OC2(C)OC(=N)C1(C#N)C(C#N)(C#N)C2C` (configuration not stated), the GI50 in assay [2] was 67.5 µM (inactive); in assay [3] it was 36.2 µM (inactive); in assay [4], 47.1 µM (inactive); in assay [5], 17.7 µM (inactive); in assay [6] it was 37.8 µM (inactive); in assay [7], 16 µM (inactive). Moreover, the GI50 in [8] is 15 µM (inactive); in [9], 15.4 µM (inactive); in assay [10], 54.8 µM (inactive); in [11] it was 36 µM (inactive); in assay [12], 52 µM (inactive); in assay [13] it was 19.4 µM (inactive). In addition, the GI50 was 24.6 µM (inactive) in [14]; 18.7 µM (inactive) in assay [16]; > 10 µM (inactive) in assay [17]; 17.6 µM (inactive) in assay [18]; 32.1 µM (inactive) in assay [19].

For `CC1SC2(CCCCC2)N(NC(=O)CSc2nc3ccc(Cl)cc3c(=O)n2-c2ccccc2)C1=O` (configuration not stated), the GI50 is 18 µM (inactive) in [1]; 32.6 µM (inactive) in [2]; 19.3 µM (inactive) in assay [3]; 47.1 µM (inactive) in assay [4]; 15.6 µM (inactive) in [5]; 23.4 µM (inactive) in assay [6]. In addition, the GI50 in assay [7] was 34.4 µM (inactive); in assay [8], 27.3 µM (inactive); in [9] it was 18.3 µM (inactive); in assay [10] it was 22.1 µM (inactive); in assay [11], 29.6 µM (inactive); in assay [12], 30.1 µM (inactive). Further, the GI50 in assay [13] is 18.2 µM (inactive); in assay [14], 23.2 µM (inactive); in [15] it was 30.4 µM (inactive); in assay [16], 42.5 µM (inactive); in assay [17] it was 24.1 µM (inactive); in assay [18] it was 17.3 µM (inactive). Further, the GI50 in assay [19] is 20.7 µM (inactive).

Consider `Cc1ccccc1OC(C)C(=O)NN1C(=O)CSC1c1ccc(Cl)cc1` (configuration not stated), for which the GI50 was 21 µM (inactive) in assay [1]; 24 µM (inactive) in assay [2]; 38.5 µM (inactive) in [3]; 47.4 µM (inactive) in [4]; 31 µM (inactive) in assay [5]; 57.9 µM (inactive) in assay [6]. Moreover, the GI50 was 51.1 µM (inactive) in [8]; 26.2 µM (inactive) in [9]; 54.3 µM (inactive) in assay [10]; 33 µM (inactive) in assay [11]; 42.2 µM (inactive) in assay [12]; 18.2 µM (inactive) in assay [13]. Further, the GI50 is 26.5 µM (inactive) in assay [20]; 35.7 µM (inactive) in [14]; 36.4 µM (inactive) in assay [15]; 37.9 µM (inactive) in assay [16]; 59.2 µM (inactive) in [17]; > 53.7 µM (inactive) in assay [18]. For the same compound, the GI50 in assay [19] was 35.7 µM (inactive).
